Experimental data from US10344026B2, “Compositions and methods of targeting mutant K-ras” (NANTBIO, INC., priority 2017, dated 2019).

Assays:
Type in all cases: cell-based
[1] = tested on: phospho-ERK in Panc10.05 (G12D); test: In-Cell Western phospho-ERK, Panc10.05; conditions: Homo sapiens, Panc1005, 1 h; Panc10.05, one hour treatment; read-out: In-Cell Western Panc10.05 (G12D) Erk (P)
Method: (§1) In-cell phosphorylation assays for Erk and Akt were performed on several of the compounds and exemplary results are shown in Table 3 below using HCC827 and A375 cell lines for wild type K-Ras and Panc1 and Panc10.05 cell lines for G12D K-Ras mutants. Results are expressed in μM and corresponding structures are shown in FIGS. 2A-2G and Examples 1-152, above.
(§2) Cells are seeded in complete medium into black sided, clear-bottom 384-well microplates at 3000 cells/[…]/well. Plates are returned to 37° C. CO2 incubator for 18 hr. Drug is made as 200× in DMSO and diluted into medium to 10×. To each well is added 4 ul 10× test article or controls, and plates are returned to the incubator. Final assay DMSO concentration is 0.5%. After one hour, cells are fixed in formaldehyde, rinsed & permeabilized with triton X-100, and blocked with BSA/Goat serum blocking solution. Primary phospho-Akt and phospho-ERK antibodies are added and plates are incubated overnight at 4° C. Plates are rinsed with Tween-20 wash buffer and secondary antibody (Goat anti-rabbit, Thermofisher) is added. After 2 hours, plates are rinsed in Tween-20 wash buffer, and then PBS. Plates are imaged on the Celigo (Nexcelom) and cellular fluorescence is quantitated. Full inhibition of phospho-Akt is achieved with 1 uM BEZ235 (Sellekchem), while full inhibition of phospho-ERK is achieved with 1 uM MEK Inhibitor II Calbiochem). EC50 values are calculated using Graphpad Prism.

[2] = tested on: Ishikawa (K-Ras wild type cell line); test: Viability assay (CellTiterBlue, 72 hr) Ishikawa; conditions: Homo sapiens, GI50, CellTiterBlue, Ishikawa K-Ras wild-type
Method: (§3) Viability assays were performed on exemplary compounds and Table 2 below lists exemplary results for selected compounds tested on K-Ras wild type cell lines (Ishikawa, U87-MG, HCC827, and A375) and various K-Ras mutant cell lines (Panc1-G12D; Panc10.05-G12D; HCT116-G31D). Results are expressed in μM and corresponding structures are shown in FIGS. 2A-2G and Examples 1-152, above.
(§4) Cells are counted and seeded at 1000 cells/36 ul medium/well into 384-well microplates. Cells are returned to 37° C. CO2 incubator for 18 hr. Drug is made as 200× in DMSO and diluted into medium to 10×. To each well is added 4 ul 10× drug, and plates are returned to the incubator. Final assay DMSO concentration is 0.5%. After 72 hr, 8 ul CellTiterBlue (Promega) is added to each well. After 3 hr, fluorescence (Ex550/Em590) is determined on the Victor Plate Reader (Perkin Elmer). Assay range is determined by DMSO control (100% viability) and 100 uM tamoxifen (0% viability). GI50 values are calculated using Graphpad Prism.

Panc10.05-G12D = test: Viability assay (CellTiterBlue, 72 hr) Panc10.05; conditions: Homo sapiens, Panc1005, GI50, CellTiterBlue, Panc10.05 K-Ras G12D, read-out: 72 hr Cell Viability Panc10.05 (G12D)
Method: as §3, §4

HCT116-G31D = test: Viability assay (CellTiterBlue, 72 hr) HCT116; conditions: Homo sapiens, HCT-116, GI50, CellTiterBlue, HCT116 K-Ras G13D, read-out: 72 hr Cell Viability HCT116 (G13D)
Method: as §3, §4

Panc1-G12D = test: Viability assay (CellTiterBlue, 72 hr) Panc1; conditions: Homo sapiens, PANC-1, GI50, CellTiterBlue, Panc1 K-Ras G12D, read-out: 72 hr Cell Viability Panc1 (G12D)
Method: as §3, §4

[3] = tested on: phospho-Akt in Panc1 (G12D); test: In-Cell Western phospho-Akt, Panc1; conditions: Homo sapiens, PANC-1, 1 h; Panc1, one hour treatment; read-out: In-Cell Western Panc1 (G12D) Akt (P)
Method: as §1, §2

wild type K-Ras = target: T1, wild type K-Ras (Homo sapiens, UniProt P01116); test: G-LISA Ras activation, 293H cells transfected with Ras wild-type, EGF stimulated; conditions: compound 1 hour, then 100 ng/ml EGF 2 minutes
T1 construct: expressed in transfected cells; host or cells: 293H cells
Method: (§5) 293H cells were seeded in 6-wells at 0.6×10^6 cells per well and transfected next day with 5 μg of Ras wild-type, or G12C, G12D or G12V mutant DNA plasmid vector using transfection reagent Lipofectamine 3000. Next day cells were treated with 3.125-25 μM of Ras compounds for 1 hour. Wild-type transfected cells were subsequently treated with 100 ng/ml EGF for 2 minutes. Cells were washed once in ice-cold PBS, lysed in complete lysis buffer on ice, and processed by G-LISA according to Cytoskeleton protocol.

K-Ras G12D = target: T2, K-Ras G12D (Homo sapiens, UniProt P01116, G12D); test: G-LISA Ras activation, 293H cells transfected with G12D mutant; conditions: compound 1 hour
T2 construct: expressed in transfected cells; host or cells: 293H cells
Method: as §5

[4] = tested on: U87-MG (K-Ras wild type cell line); test: Viability assay (CellTiterBlue, 72 hr) U87-MG; conditions: Homo sapiens, U-87 MG, GI50, CellTiterBlue, U87-MG K-Ras wild-type
Method: as §3, §4

[5] = tested on: phospho-ERK in Panc1 (G12D); test: In-Cell Western phospho-ERK, Panc1; conditions: Homo sapiens, PANC-1, 1 h; Panc1, one hour treatment; read-out: In-Cell Western Panc1 (G12D) Erk (P)
Method: as §1, §2

[6] = tested on: HCC827 (K-Ras wild type cell line); test: Viability assay (CellTiterBlue, 72 hr) HCC827; conditions: Homo sapiens, GI50, CellTiterBlue, HCC827 K-Ras wild-type
Method: as §3, §4

T2 sequence (P01116 whole entry G12D): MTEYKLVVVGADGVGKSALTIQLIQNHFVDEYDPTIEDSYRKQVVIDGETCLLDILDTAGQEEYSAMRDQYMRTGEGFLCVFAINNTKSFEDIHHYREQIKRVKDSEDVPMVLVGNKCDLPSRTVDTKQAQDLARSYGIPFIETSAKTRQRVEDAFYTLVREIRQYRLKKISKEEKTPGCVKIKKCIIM
T1 sequence (P01116 whole entry): as the sequence (P01116 whole entry G12D) above, with D12G counted along it

| IC50 (Panc10.05-G12D) | IC50 (HCT116-G31D) | IC50 (Panc1-G12D) | IC50 (wild type K-Ras) | IC50 (K-Ras G12D) | IC50 [4] | IC50 [6] | Compound | EC50 [1] | IC50 [2] | EC50 [3] | EC50 [5] |
| --- | --- | --- | --- | --- | --- | --- | --- | --- | --- | --- | --- |
| 0.679 µM | 4 µM | 5 µM | 12.6 µM | 13.9 µM | 2 µM | 17 µM | COc1cccc(CN2C(=O)CCc3cc(-c4csc(NC(=O)c5oc(C)nc5C)n4)ccc32)c1 [Compound 76, N-(4-(1-(3-methoxybenzyl)-2-oxo-1,2,3,4-tetrahydroquinolin-6-yl)thiazol-2-yl)-2,4-dimethyloxazole-5-carboxamide] |  | 5 µM |  |  |
| > 25 µM | 10 µM | > 25 µM | > 25 µM | 24.6 µM | 13 µM | > 25 µM | Cc1nc(C)c(C(=O)Nc2nc(-c3ccc4c(c3)CCC(=O)N4Cc3cncc4ccccc34)cs2)o1 [Compound 82, N-(4-(1-(isoquinolin-4-ylmethyl)-2-oxo-1,2,3,4-tetrahydroquinolin-6-yl)thiazol-2-yl)-2,4-dimethyloxazole-5-carboxamide] |  | 4 µM |  |  |
| 5 µM | 2 µM | 5 µM | 16.7 µM | 6.1 µM | 2 µM | 2 µM | Cc1nc(C)c(C(=O)Nc2nc(-c3ccc4c(c3)CCC(=O)N4CC3CCCN(C(=O)OC(C)(C)C)C3)cs2)o1 (stereo not shown) [Compound 86, tert-butyl 3-((6-(2-(2,4-dimethyloxazole-5-carboxamido)thiazol-4-yl)-2-oxo-3,4-dihydroquinolin-1(2H)-yl)methyl)piperidine-1-carboxylate] |  |  |  |  |
| 6 µM | 4 µM | 8 µM | 23.4 µM | 7.6 µM | 5 µM | 5 µM | Cc1nc(C2CCOC2)oc1C(=O)Nc1nc(-c2ccc3c(c2)CCC(=O)N3Cc2cccnc2)cs1 (stereo not shown) [Compound 85, 4-methyl-N-(4-(2-oxo-1-(pyridin-3-ylmethyl)-1,2,3,4-tetrahydroquinolin-6-yl)thiazol-2-yl)-2-(tetrahydrofuran-3-yl)oxazole-5-carboxamide] |  |  |  |  |
| 0.733 µM | 3 µM | 7 µM | 18.8 µM | 19.2 µM | 3 µM | 12 µM | Cc1nc(C)c(C(=O)Nc2nc(-c3ccc4c(c3)CCC(=O)N4Cc3cccc4c3OCO4)cs2)o1 [Compound 73, N-(4-(1-(benzo[d][1,3]dioxol-4-ylmethyl)-2-oxo-1,2,3,4-tetrahydroquinolin-6-yl)thiazol-2-yl)-2,4-dimethyloxazole-5-carboxamide] |  | 4 µM |  |  |
| 8 µM | 3 µM | 10 µM | 16.6 µM | 14.2 µM | 4 µM | 4 µM | Cc1nc(C)c(C(=O)Nc2nc(-c3ccc4c(c3)CCC(=O)N4Cc3cccc(N)c3)cs2)o1 [Compound 90, N-(4-(1-(3-aminobenzyl)-2-oxo-1,2,3,4-tetrahydroquinolin-6-yl)thiazol-2-yl)-2,4-dimethyloxazole-5-carboxamide] |  |  |  |  |

The remaining lines, values behind:

| Compound | IC50 (Panc10.05-G12D) | IC50 (HCT116-G31D) | IC50 (Panc1-G12D) | IC50 (wild type K-Ras) | IC50 (K-Ras G12D) | IC50 [4] | IC50 [6] | EC50 [1] | IC50 [2] | EC50 [3] | EC50 [5] |
| --- | --- | --- | --- | --- | --- | --- | --- | --- | --- | --- | --- |
| CCc1nc(C)c(C(=O)Nc2nc(-c3ccc4c(c3)CCC(=O)N4Cc3ccccc3)cs2)o1 [Compound 59, N-(4-(1-benzyl-2-oxo-1,2,3,4-tetrahydroquinolin-6-yl)thiazol-2-yl)-2-ethyl-4-methyloxazole-5-carboxamide] | 11 µM | 6 µM | 2 µM | 6.5 µM | 5.8 µM | 10 µM |  | 3 µM | 4 µM | 6 µM | 3 µM |
| Cc1nc(C2CCOC2)oc1C(=O)Nc1nc(-c2ccc3c(c2)CCC(=O)N3)cs1 (stereo not shown) [Compound 10, 4-methyl-N-(4-(2-oxo-1,2,3,4-tetrahydroquinolin-6-yl)thiazol-2-yl)-2-(tetrahydrofuran-3-yl)oxazole-5-carboxamide] | 2 µM | 5 µM | 4 µM | > 25 µM | 22 µM | 5 µM | 23 µM |  | 2 µM |  |  |
| Cc1nc(C)c(C(=O)Nc2nc(-c3ccc4c(c3)CCC(=O)N4Cc3ccccc3)cs2)o1 [Compound 60, N-(4-(1-benzyl-2-oxo-1,2,3,4-tetrahydroquinolin-6-yl)thiazol-2-yl)-2,4-dimethyloxazole-5-carboxamide] | 13 µM | 7 µM | 2 µM | 8.6 µM | 7.4 µM | 14 µM |  | 3 µM | 6 µM | 6 µM | 4 µM |
| Cc1nc(C2CCOC2)sc1C(=O)Nc1nc(-c2ccc3c(c2)CCC(=O)N3Cc2cccnc2)cs1 (stereo not shown) [Compound 84, 4-methyl-N-(4-(2-oxo-1-(pyridin-3-ylmethyl)-1,2,3,4-tetrahydroquinolin-6-yl)thiazol-2-yl)-2-(tetrahydrofuran-3-yl)thiazole-5-carboxamide] | 7 µM | 4 µM | 7 µM | 19.9 µM | 4.9 µM | 4 µM | 3 µM |  |  |  |  |
| CCn1cc(C(=O)Nc2nc(-c3ccc4c(c3)CCC(=O)N4)cs2)c(C)n1 [Compound 25, 1-ethyl-3-methyl-N-(4-(2-oxo-1,2,3,4-tetrahydroquinolin-6-yl)thiazol-2-yl)-1H-pyrazole-4-carboxamide] | 0.774 µM | 2 µM | 2 µM | 10.7 µM | 6.6 µM | 2 µM | 7 µM |  | 1.1 µM |  |  |
| Cc1nc(C)c(C(=O)Nc2nc(-c3ccc4c(c3)CCC(=O)N4CC3CCCCC3)cs2)o1 [Compound 62, N-(4-(1-(cyclohexylmethyl)-2-oxo-1,2,3,4-tetrahydroquinolin-6-yl)thiazol-2-yl)-2,4-dimethyloxazole-5-carboxamide] | 2 µM | 4 µM | 5 µM | > 25 µM | 21.7 µM | 3 µM |  | 6 µM | 3 µM | 6 µM | 2 µM |
| Cn1nc2ccccc2c1C(=O)Nc1nc(-c2ccc3c(c2)CCC(=O)N3)cs1 [Compound 26, 2-methyl-N-(4-(2-oxo-1,2,3,4-tetrahydroquinolin-6-yl)thiazol-2-yl)-2H-indazole-3-carboxamide] | 1.1 µM | 1 µM | 2 µM | > 25 µM | 10.6 µM | 1.4 µM | 6 µM |  | < 0.8 µM |  |  |
